Results from patent US7026518B2 (Laila Impex, priority 2002, dated 2006).

Experiments:
[1] = Superoxide scavenging activity (NBT), McCord and Fridovich method; settings: light induced superoxide generation by riboflavin, reduction of NBT
Protocol: Antioxidant (superoxide scavenging) activity of these compounds are determined by conventional methods like McCord and Fridovich method, which is based on light induced superoxide generation by riboflavin and corresponding reduction of NBT. The assay mixture contains phosphate buffer, EDTA, NBT and riboflavin. Different concentrations of these compounds were assessed and their optical densities measured before and after illumination. The percentage value of inhibition of superoxide production by the compounds of this invention was evaluated and compared with the absorbance value of control and experimental data.

SMILES	melting point	Superoxide scavenging activity (NBT) IC50 [1]
Oc1ccc(/C=C/c2cc(O)c(O)c(O)c2)cc1O [Compound 1, 5-[(1E)-2-(3,4-dihydroxyphenyl)vinyl]-benzene1,2,3-triol]	150 to 152 °C	3.0 µg/mL
Oc1cc(/C=C/c2cc(O)c(O)c(Br)c2)cc(O)c1O [Compound 2, 5-[(1E)-2-(5-Bromo-3,4-dihydroxyphenyl)vinyl]-benzene1,2,3-triol]	180 to 182 °C	8.1 µg/mL
Oc1cc(/C=C/c2cc(O)c(O)c(O)c2)cc(O)c1O [Compound 3, 5-[(1E)-2-(3,4,5-trihydroxyphenyl)vinyl]-benzene1,2,3-triol]		0.9 µg/mL
O=C(Oc1cc(O)cc(/C=C/c2ccc(O)cc2)c1)c1cc(O)c(O)c(O)c1 [Compound 4, 5-[(1E)2-(4-hydroxyphenyl)vinyl]-3-hydroxyphenyl 3,4,5-trihydroxybenzoate]		16.0 µg/mL
O=C(Oc1cc(/C=C/c2ccc(O)cc2)cc(OC(=O)c2cc(O)c(O)c(O)c2)c1)c1cc(O)c(O)c(O)c1 [Compound 5, 3-[(1E)-2-(4-hydroxyphenyl)vinyl]-5-(3,4,5trihydroxyphenylcarbonyloxy)-phenyl 3,4,5-trihydroxybenzoate]		17.5 µg/mL
O=C(/C=C/c1ccc(O)c(O)c1)Oc1cc(O)cc(/C=C/c2ccc(O)cc2)c1 [Compound 6, 5-[(1E)-2-(4-hydroxyphenyl)vinyl]-3-hydroxyphenyl(2E)-3(3,4-dihydroxyphenyl) prop-2-enoate]		9.2 µg/mL

Continued, values first:

melting point	Superoxide scavenging activity (NBT) IC50 [1]	SMILES
	10.0 µg/mL	O=C(/C=C/c1cc(O)c(O)c(O)c1)Oc1cc(O)cc(/C=C/c2ccc(O)cc2)c1 [Compound 7, 5-[(1E)-2-(4-hydroxyphenyl)vinyl]-3-hydroxyphenyl(2E)3(3,4,5-trihydroxyphenyl) prop-2-enoate]
92 to 94 °C	34.1 µg/mL	CN(C)CCOc1cc(O)cc(/C=C/c2ccc(O)cc2)c1 [Compound 8, 3-[(1E)-2-(4-hydroxyphenyl)vinyl]-5-[2-(dimethylamino)ethoxy] phenol]
	29.3 µg/mL	Cl.NCC(=O)Oc1cc(O)cc(/C=C/c2ccc(O)cc2)c1 [Compound 9, 5-[(1E)-2-(4-hydroxyphenyl)vinyl]-3-hydroxyphenyl 2-aminoacetate hydrochloride]
